Results taken from patent US20230127944A1, “BROAD-SPECTRUM CARBAPENEMS” (priority 2019, published 2023).

Test system: Methicillin Resistant S. aureus (MRSA) clinical isolates
Assay: expanded MIC profiling, MRSA clinical isolates
Type: cell-based
Settings: Staphylococcus aureus
Procedure: To evaluate the activity of selected example compounds against clinical isolates of target species, standard cell-based broth microdilution MIC assays were employed. A panel of 20 clinical isolates of P. aeruginosa and 20 clinical isolates of Methicillin Resistant S. aureus (MRSA) from Lankenau Medical Center (Wynnewood, Pa.) were used. In the set of P. aeruginosa isolates, the compounds were also tested in combination with a β-lactamase inhibitor (taniborbactam), to evaluate the potential benefit of inhibiting β-lactamase enzymes. The assay was conducted in Cation Adjusted Mueller Hinton Broth (CAMHB, BD #212322, BD Diagnostic Systems, Sparks, Md.). Bacteria strains were grown for 3-5 hours in CAMHB. Compounds were added to a microtiter plate in 2-fold serial dilutions in CAMHB. For plates receiving β-lactamase inhibitor, taniborbactam was added to obtain a final fixed concentration of 4 μg/mL. Once the test articles were added, the plates were inoculated according to CLSI broth microdilution method. After inoculation, the plates were incubated for 16-20 hours at 37° C. then the Minimal Inhibitory Concentration (MIC) of the test compound is determined visually. Values for concentration required to inhibit growth of […] (MIC50) and 90% (MIC90) of isolates were determined.

[1] = panel of S. aureus (MRSA) isolates of Table 5

C[C@@H](O)[C@H]1C(=O)N2C(C(=O)O)=C(S[C@@H]3CCN(C[C@H]4CC[C@H](NC(=N)N)CC4)C3)[C@H](C)[C@H]12 [Example 28, (4R,5S,6S)-3-(((R)-1-(((1R,4R)-4-guanidinocyclohexyl)methyl)pyrrolidin-3-yl)thio)-6-((R)-1-hydroxyethyl)-4-methyl-7-oxo-1-azabicyclo[3.2.0]hept-2-ene-2-carboxylic acid] gave an MIC (ATCC 33591 / MRSA, S. aureus ATCC-33591) of 2 µg/mL, an MIC (MRSA, S. aureus clinical isolate LH-SA3) of 0.5 µg/mL and an MIC (MRSA, S. aureus clinical isolate LH-SA9) of 0.5 µg/mL. It also gave an MIC (MRSA, S. aureus clinical isolate LH-SA23) of 0.5 µg/mL, an MIC (MRSA, S. aureus clinical isolate LH-SA24) of 0.5 µg/mL and an MIC (MRSA, S. aureus clinical isolate LH-SA26) of 0.5 µg/mL. For the same molecule, the MIC (MRSA, S. aureus clinical isolate LH-SA29) was 2 µg/mL, the MIC (MRSA, S. aureus clinical isolate LH-SA33) was 2 µg/mL and the MIC (MRSA, S. aureus clinical isolate LH-SA34) was 4 µg/mL. For the same molecule, the MIC (MRSA, S. aureus clinical isolate LH-SA37) was 0.25 µg/mL, the MIC (MRSA, S. aureus clinical isolate LH-SA38) was 4 µg/mL and the MIC (MRSA, S. aureus clinical isolate LH-SA39) was 2 µg/mL. It also gave an MIC (MRSA, S. aureus clinical isolate LH-SA40) of 2 µg/mL, an MIC (MRSA, S. aureus clinical isolate LH-SA41) of 2 µg/mL and an MIC (MRSA, S. aureus clinical isolate LH-SA42) of 0.5 µg/mL. The MIC (MRSA, S. aureus clinical isolate LH-SA44) was 4 µg/mL, the MIC (MRSA, S. aureus clinical isolate LH-SA45) was 16 µg/mL and the MIC (MRSA, S. aureus clinical isolate LH-SA48) was 0.5 µg/mL. It also gave an MIC (MRSA, S. aureus clinical isolate LH-SA49) of 0.5 µg/mL, an MIC (MRSA, S. aureus clinical isolate LH-SA50) of 0.5 µg/mL and an MIC50 [1] of 0.5 µg/mL. The MIC90 [1] was 4 µg/mL.
